Blank lines part the entries; values can stand above or below the molecule they belong to.
How the values were obtained:
[1] = molecular target: T1, Angiotensin-converting enzyme (Homo sapiens, UniProt P12821); test: Inhibition of angiotensin-converting enzyme (unknown origin)
[2] = Inhibition of farnesyltransferase (unknown origin); set-up: species or system Homo sapiens
B2 bradykinin receptor [3] = molecular target: T2, B2 bradykinin receptor (Homo sapiens, UniProt P30411); test: Antagonist potency at B2 bradykinin receptor (unknown origin); settings: read-out: pA2 (converted)
T2 sequence (P30411 whole entry): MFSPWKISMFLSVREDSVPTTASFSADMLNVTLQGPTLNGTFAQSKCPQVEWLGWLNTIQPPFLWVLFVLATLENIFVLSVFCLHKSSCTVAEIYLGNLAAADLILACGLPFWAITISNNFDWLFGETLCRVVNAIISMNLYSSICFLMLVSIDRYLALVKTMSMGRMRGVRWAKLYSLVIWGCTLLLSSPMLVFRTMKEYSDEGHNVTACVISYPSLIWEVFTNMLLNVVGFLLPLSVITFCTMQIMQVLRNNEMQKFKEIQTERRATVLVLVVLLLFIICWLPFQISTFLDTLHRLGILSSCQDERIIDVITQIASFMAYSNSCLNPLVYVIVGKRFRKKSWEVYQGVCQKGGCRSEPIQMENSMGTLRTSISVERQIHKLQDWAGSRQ

B2 bradykinin receptor [4] = molecular target: T2, B2 bradykinin receptor; test: Binding affinity to B2 bradykinin receptor (unknown origin)
[5] = molecular target: T1, Angiotensin-converting enzyme; test: Binding affinity to angiotensin-converting enzyme (unknown origin) assessed as inhibition constant
Neprilysin = Neprilysin (Homo sapiens, UniProt P08473); test: Binding affinity to neutral endopeptidase (unknown origin) assessed as inhibition constant
Substance-P receptor = Substance-P receptor (Homo sapiens, UniProt P25103); test: Inhibition of [3H]SP binding to human neurokinin receptor 1 expressed in CHO cells; format: cell-based

SMILES: CCOC(=O)[C@H](CCc1ccccc1)N[C@@H](C)C(=O)N1[C@H](C(=O)O)C[C@@H]2CCC[C@@H]21
IC50 [1]: 4.2 nM

SMILES: CC(C)C[C@@H](C(=O)O)N1CCO[C@@H](c2ccccc2)[C@H](NC(=O)[C@@H](S)Cc2ccccc2)C1=O
Ki [5]: 50000 nM
Ki (Neprilysin): 330 nM

SMILES: N=C(N)NCCC[C@@H](N)C(=O)N[C@@H](CCCNC(=N)N)C(=O)N1CCC[C@H]1C(=O)N1C[C@H](O)C[C@H]1C(=O)NCC(=O)N[C@@H](Cc1cccs1)C(=O)N[C@@H](CO)C(=O)N1CCC[C@]12Cc1ccccc1CN(CC(=O)N[C@@H](CCCNC(=N)N)C(=O)O)C2=O
Kb (B2 bradykinin receptor [3]): 3160 nM
Ki (B2 bradykinin receptor [4]; read-out: pKi (converted)): 25.1 nM

SMILES: C[C@H](N[C@@H](CCc1ccccc1)C(=O)O)C(=O)N1Cc2ccccc2[C@H]1C(=O)O
IC50 [1]: 44 nM

SMILES: N=C(N)NCCC[C@@H](N)C(=O)N[C@@H](CCCNC(=N)N)C(=O)N1CCC[C@H]1C(=O)N1C[C@H](O)C[C@H]1C(=O)NCC(=O)N[C@@H](Cc1cccs1)C(=O)N[C@@H](CO)C(=O)N1CCC[C@@]12Cc1ccccc1CN(CC(=O)N[C@@H](CCCNC(=N)N)C(=O)O)C2=O
Kb (B2 bradykinin receptor [3]): 2000 nM
Ki (B2 bradykinin receptor [4]; read-out: pKi (converted)): 3.16 nM

SMILES: CSCC[C@H](NC(=O)[C@@H]1Cc2ccccc2CN1C[C@@H](NC(=O)[C@@H](N)CS)C(C)C)C(=O)O
IC50 [2]: 0.37 nM

SMILES: N=C(N)NCCC[C@@H](N)C(=O)N[C@@H](CCCNC(=N)N)C(=O)N1CCC[C@H]1C(=O)N1C[C@H](O)C[C@H]1C(=O)NCC(=O)N[C@@H](Cc1cccs1)C(=O)N[C@@H](CO)C(=O)N1Cc2ccccc2C[C@@H]1C(=O)N1Cc2ccccc2C[C@@H]1C(=O)N[C@@H](CCCNC(=N)N)C(=O)O
Kb (B2 bradykinin receptor [3]): 2510 nM
Ki (B2 bradykinin receptor [4]; read-out: Ki): 571 nM

SMILES: CC(C)C[C@H](NC(=O)CNC(=O)OCc1ccccc1)C(=O)NC1(C(=O)OCc2cc(C(F)(F)F)cc(C(F)(F)F)c2)CNc2[nH]c3ccccc3c2C1 (some centres undefined)
Ki (Substance-P receptor): 200 nM

SMILES: CC(C)C[C@@H](C(=O)O)N1Cc2ccccc2C[C@H](NC(=O)[C@@H](S)Cc2ccccc2)C1=O
Ki (Neprilysin): 0.4 nM

SMILES: N=C(N)NCCC[C@@H](N)C(=O)N[C@@H](CCCNC(=N)N)C(=O)N1CCC[C@H]1C(=O)N1C[C@H](O)C[C@H]1C(=O)NCC(=O)N[C@@H](Cc1cccs1)C(=O)N[C@H]1CSSC[C@@H](C(=O)N[C@@H](CCCNC(=N)N)C(=O)O)NC(=O)[C@H](Cc2ccccc2)NC(=O)[C@H](Cc2ccccc2)NC1=O
Kb (B2 bradykinin receptor [3]): 3980 nM
Ki (B2 bradykinin receptor [4]; read-out: Ki): 876 nM

SMILES: N=C(N)NCCCC(NC(=O)[C@@H]1C[C@@H]2CCC[C@@H]2N1C(=O)[C@H]1Cc2ccccc2CN1C(=O)[C@H](CO)NC(=O)[C@H](Cc1cccs1)NC(=O)CNC(=O)[C@@H]1C[C@@H](O)CN1C(=O)[C@@H]1CCCN1C(=O)[C@H](CCCNC(=N)N)NC(=O)[C@H](N)CCCNC(=N)N)C(=O)O (some centres undefined)
Kb (B2 bradykinin receptor [3]): 0.398 nM
Ki (B2 bradykinin receptor [4]; read-out: Ki): 0.18 nM

SMILES: CSCC[C@H](NC(=O)[C@@H]1Cc2ccccc2CN1C(=O)[C@@H](NC(=O)[C@H](CS)NC(=O)[C@@H](N)CCCCN)C(C)C)C(=O)O
IC50 [2]: 20 nM

SMILES: CC(C)C[C@H](NC(=O)CNC(=O)OCc1ccccc1)C(=O)N1Cc2[nH]c3ccccc3c2C[C@H]1C(=O)OCc1cc(C(F)(F)F)cc(C(F)(F)F)c1
Ki (Substance-P receptor): 63 nM

SMILES: O=C(O)CN1Cc2ccccc2C[C@H](N[C@@H](CCc2ccccc2)C(=O)O)C1=O
Ki [5]: 10 nM

The next lines start with the values.

IC50 [2]: 0.6 nM
SMILES: CSCC[C@H](NC(=O)[C@@H]1Cc2ccccc2CN1C(=O)[C@@H](NC[C@@H](N)CS)C(C)C)C(=O)O

IC50 [2]: 100000 nM
SMILES: CSCC[C@H](NC(=O)[C@H]1Cc2ccccc2CN1C(=O)[C@@H]1CCCN1C(=O)[C@H](CS)NC(=O)[C@@H](N)CCCCN)C(=O)O

Kb (B2 bradykinin receptor [3]): 2510 nM
Ki (B2 bradykinin receptor [4]; read-out: pKi (converted)): 316 nM
SMILES: N=C(N)NCCC[C@@H](N)C(=O)N[C@@H](CCCNC(=N)N)C(=O)N1CCC[C@H]1C(=O)N1C[C@H](O)C[C@H]1C(=O)NCC(=O)N[C@@H](Cc1cccs1)C(=O)N[C@@H](CO)C(=O)N[C@@H]1Cc2ccccc2CN(CC(=O)N[C@@H](CCCNC(=N)N)C(=O)O)C1=O

Ki (Substance-P receptor): 765 nM
SMILES: CC(=O)NC1(C(=O)OCc2cc(C(F)(F)F)cc(C(F)(F)F)c2)CCc2[nH]c3ccccc3c2C1 (centres undefined)

Ki (B2 bradykinin receptor [4]; read-out: pKi (converted)): 200 nM
SMILES: N=C(N)NCCC[C@@H](N)C(=O)N[C@@H](CCCNC(=N)N)C(=O)N1CCC[C@H]1C(=O)N1C[C@H](O)C[C@H]1C(=O)NCC(=O)N[C@@H](Cc1cccs1)C(=O)N[C@@H](CO)C(=O)N[C@H]1Cc2ccccc2CN(CC(=O)N[C@@H](CCCNC(=N)N)C(=O)O)C1=O

Ki [5]: 0.004 nM
Ki (Neprilysin): > 10 nM
SMILES: O=C(O)[C@H](CCc1ccccc1)N[C@H]1Cc2ccccc2[C@H]2CCC[C@@H](C(=O)O)N2C1=O

Ki (B2 bradykinin receptor [4]; read-out: pKi (converted)): 501 nM
SMILES: C[C@H](C(=O)N[C@@H](CCCNC(=N)N)C(=O)O)N1Cc2ccccc2C[C@@H](NC(=O)[C@H](CO)NC(=O)[C@H](Cc2ccccc2)NC(=O)CNC(=O)[C@@H]2CCCN2C(=O)[C@@H]2CCCN2C(=O)[C@@H](N)CCCNC(=N)N)C1=O
